Patent US7485641B2, “Substituted 3-amino-pyrrolidino-4-lactams” (Pfizer, Inc., priority 2006, dated 2009)
pIC50: −log10 of the molar value. Structures can show the parent of a compound that is named as a salt.

Target: T1, DPP-IV (Homo sapiens, UniProt P27487)
T1 construct: purchased Enzyme Systems Products SPE-01
Test: In vitro assay for dipeptidyl peptidase inhibition
Type: biochemical
Conditions: Examples 156-162; n-value in brackets; IC50's or percent inhibition at 300 nM; read-out: DPP-IV inhibition

T1 sequence (P27487 whole entry, species assumed): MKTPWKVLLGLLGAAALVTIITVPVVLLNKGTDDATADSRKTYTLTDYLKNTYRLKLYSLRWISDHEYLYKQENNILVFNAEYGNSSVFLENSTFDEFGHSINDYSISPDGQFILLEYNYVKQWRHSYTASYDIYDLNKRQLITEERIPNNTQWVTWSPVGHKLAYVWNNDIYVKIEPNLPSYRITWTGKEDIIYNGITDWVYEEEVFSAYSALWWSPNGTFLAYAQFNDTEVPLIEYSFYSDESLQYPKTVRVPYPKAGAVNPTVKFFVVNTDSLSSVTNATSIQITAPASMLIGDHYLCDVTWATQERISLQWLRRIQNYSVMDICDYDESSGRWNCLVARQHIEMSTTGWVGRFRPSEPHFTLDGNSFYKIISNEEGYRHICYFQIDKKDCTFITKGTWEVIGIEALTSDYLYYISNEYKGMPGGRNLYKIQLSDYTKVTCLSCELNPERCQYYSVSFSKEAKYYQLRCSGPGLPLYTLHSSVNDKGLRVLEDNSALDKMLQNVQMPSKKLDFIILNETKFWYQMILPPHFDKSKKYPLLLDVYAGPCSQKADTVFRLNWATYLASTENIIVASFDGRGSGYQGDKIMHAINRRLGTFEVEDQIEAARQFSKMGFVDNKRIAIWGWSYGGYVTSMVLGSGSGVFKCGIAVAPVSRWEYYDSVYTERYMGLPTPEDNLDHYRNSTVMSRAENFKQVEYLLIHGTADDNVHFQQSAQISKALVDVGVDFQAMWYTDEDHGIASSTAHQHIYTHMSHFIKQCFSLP

In order of falling pIC50:
1. N[C@H]1CN(C(=O)c2cc3ccccc3o2)C[C@@H]1N1CCCCC1=O [Example 156, 1-[(3S,4S)-4-Amino-1-(benzofuran-2-carbonyl)-pyrrolidin-3-yl]-piperidin-2-one hydrochloride]  6.73
2. N[C@H]1CN(C(=O)c2cc3ccc(Cl)cc3o2)C[C@@H]1N1CCCCC1=O [Example 158, 1-((3S,4S)-4-amino-1-(6-chlorobenzofuran-2-carbonyl)pyrrolidin-3-yl)piperidin-2-onetrifluoroacetate]  6.64

Same assay, conditions: at 300 nM; n-value given in brackets; read-out: DPP-IV Percent Inhibition at 300 nM

`CC(C)S(=O)(=O)c1ccc2c(N3C[C@H](N)[C@@H](N4CCCCC4=O)C3)ncnc2c1` [Example 138, 1-((3S,4S)-4-amino-1-(7-(isopropylsulfonyl)quinazolin-4-yl)pyrrolidin-3-yl)piperidin-2-one trifluoroacetate] gave an inhibition at 0.3 µM of 24.1%.

Same assay, conditions: n-value given in brackets; read-out: DPP-IV IC50

In order of rising pIC50:
1. CCC[C@H](C)Oc1cc(N2C[C@H](N)[C@@H](N3CCCCC3=O)C2)ncn1 [Example 90, 1-((3S,4S)-4-Amino-1-(6-((S)-pentan-2-yloxy)pyrimidin-4-yl)pyrrolidin-3-yl)piperidin-2-onetrifluoroacetate]  5.99
2. 1-((3S,4S)-4-Amino-1-(6-(pyrrolidin-1-yl)pyrimidin-4-yl)pyrrolidin-3-yl)pyrrolidin-2-one(dihydrochloride) [Example 31]  6.32
3. N[C@H]1CN(c2ncnc3[nH]cnc23)C[C@@H]1N1CCCCC1=O [Example 148, 1-[(3S,4S)-4-Amino-1-(9H-purin-6-yl)-pyrrolidin-3-yl]-piperidin-2-one hydrochloride]  6.38
4. N[C@H]1CN(c2ncnc(N3CCCCC3)n2)C[C@@H]1N1CCCCC1=O [Example 47, 1-[(3S,4S)-4-Amino-1-(4-piperidin-1-yl-[1,3,5]triazin-2-yl)-pyrrolidin-3-yl]-piperidin-2-onetrifluoroacetate]  6.50
5. Cc1nc(N2C[C@H](N)[C@@H](N3CCCCC3=O)C2)cc(N2CCCC(F)(F)C2)n1 [Example 34, 1-((3S,4S)-4-amino-1-(6-(3,3-difluoropiperidin-1-yl)-2-methylpyrimidin-4-yl)pyrrolidin-3-yl)piperidin-2-onetrifluoroacetate]  6.56
6. N[C@H]1CN(c2ncnc3cc(F)ccc23)C[C@@H]1N1CCCCC1=O [Example 105, 1-((3S,4S)-4-Amino-1-(7-fluoroquinazolin-4-yl)pyrrolidin-3-yl)piperidin-2-one trifluoroacetate]  6.62
7. N[C@H]1CN(c2ncnc3cc(Oc4ccc(OC(F)(F)F)cc4)ccc23)C[C@@H]1N1CCCCC1=O [Example 133, 1-((3S,4S)-4-amino-1-(7-(4-(trifluoromethoxy)phenoxy)quinazolin-4-yl)pyrrolidin-3-yl)piperidin-2-one]  6.70
8. N[C@H]1CN(c2ncnc3c2ncn3C2CC2)C[C@@H]1N1CCCCC1=O [Example 150, 1-[(3S,4S)-4-Amino-1-(9-cyclopropyl-9H-purin-6-yl)-pyrrolidin-3-yl]-piperidin-2-one hydrochloride]  6.72
9. N[C@H]1CN(c2ncnc3ccc(Cl)cc23)C[C@@H]1N1CCCCC1=O [Example 104, 1-[(3S,4S)-4-Amino-1-(6-chloro-quinazolin-4-yl)-pyrrolidin-3-yl]-piperidin-2-one hydrochloride]  6.88
10. CC(C)Sc1ccc2c(N3C[C@H](N)[C@@H](N4CCCCC4=O)C3)ncnc2c1 [Example 137, 1-((3S,4S)-4-amino-1-(7-(isopropylthio)quinazolin-4-yl)pyrrolidin-3-yl)piperidin-2-one]  6.94
11. N[C@H]1CN(c2cc(N3CCC(F)(F)C3)nc(C3CC3)n2)C[C@@H]1N1CCCCC1=O [Example 17, 1-((3S,4S)-4-amino-1-(2-cyclopropyl-6-(3,3-difluoropyrrolidin-1-yl)pyrimidin-4-yl)pyrrolidin-3-yl)piperidin-2-one]  6.96
12. N[C@H]1CN(c2ncnc3cc(OC4CCCC4)ccc23)C[C@@H]1N1CCCCC1=O [Example 119, 1-((3S,4S)-4-amino-1-(7-(cyclopentyloxy)quinazolin-4-yl)pyrrolidin-3-yl)piperidin-2-one]  6.97
13. N[C@H]1CN(c2ncnc(N3C[C@H](F)[C@@H](F)C3)n2)C[C@@H]1N1CCCCC1=O [Example 30, 1-((3S,4S)-4-Amino-1-(4-((3S,4S)-3,4-difluoropyrrolidin-1-yl)-1,3,5-triazin-2-yl)pyrrolidin-3-yl)piperidin-2-onetrifluoroacetate]  6.98
14. Cc1ccc(C)c2c1CN(c1cc(N3C[C@H](N)[C@@H](N4CCCCC4=O)C3)ncn1)C2 [Example 55, 1-{(3S,4S)-4-Amino-1-[6-(4,7-dimethyl-1,3-dihydro-isoindol-2-yl)-pyrimidin-4-yl]-pyrrolidin-3-yl}-piperidin-2-one]  7.00
15. COc1cc2ncnc(N3C[C@H](N)[C@@H](N4CCCCC4=O)C3)c2cc1Cl [Example 106, 1-((3S,4S)-4-Amino-1-(6-chloro-7-methoxyquinazolin-4-yl)pyrrolidin-3-yl)piperidin-2-one trifluoroacetate]  7.00
16. N[C@H]1CN(c2ncnc(N3CC[C@H](F)C3)n2)C[C@@H]1N1CC(F)(F)CCC1=O [Example 24, 1-((3S,4S)-4-amino-1-(4-((S)-3-fluoropyrrolidin-1-yl)-1,3,5-triazin-2-yl)pyrrolidin-3-yl)-5,5-difluoropiperidin-2-one]  7.32
17. Cc1nc(N2CC[C@H](F)C2)cc(N2C[C@H](N)[C@@H](N3CC(F)(F)CCC3=O)C2)n1 [Example 26, 1-((3S,4S)-4-amino-1-(6-((S)-3-fluoropyrrolidin-1-yl)-2-methylpyrimidin-4-yl)pyrrolidin-3-yl)-5,5-difluoropiperidin-2-one]  7.43
18. N[C@H]1CN(c2cc(N3CCc4nocc4C3)nc(C(F)(F)F)n2)C[C@@H]1N1CC(F)(F)CCC1=O [Example 77, 1-{(3S,4S)-4-amino-1-[6-(6,7-dihydro-4H-isoxazolo[4,3-c]pyridin-5-yl)-2-trifluoromethyl-pyrimidin-4-yl]-pyrrolidin-3-yl}-5,5-difluoro-piperidin-2-one]  7.47
19. N[C@H]1CN(c2cc(-c3ccccc3)ncn2)C[C@@H]1N1CC(F)(F)CCC1=O [Example 82, 1-((3S,4S)-4-amino-1-(6-phenylpyrimidin-4-yl)pyrrolidin-3-yl)-5,5-difluoropiperidin-2-one trifluoroacetate]  7.54
20. N[C@H]1CN(c2cc(-c3ccc(O)nc3)ncn2)C[C@@H]1N1CCCCC1=O [Example 8, 1-{(3S,4S)-4-Amino-1-[6-(6-hydroxy-pyridin-3-yl)pyrimidin-4-yl]-pyrrolidin-3-yl}-piperidin-2-one]  7.57
21. N[C@H]1CN(c2cc(N3CCC(F)(F)C3)ncn2)C[C@@H]1N1CCCCC1=O [Example 10, 1-((3S,4S)-4-Amino-1-(6-(3,3-difluoropyrrolidin-1-yl)pyrimidin-4-yl)pyrrolidin-3-yl)piperidin-2-onedihydrochloride]  7.59
22. N[C@H]1CN(c2cc(N3CCc4nocc4C3)ncn2)C[C@@H]1N1CC(F)(F)CCC1=O [Example 4, 1-((3S,4S)-4-amino-1-(6-(6,7-dihydroisoxazolo[4,3-c]pyridin-5(4H)-yl)pyrimidin-4-yl)pyrrolidin-3-yl)-5,5-difluoropiperidin-2-one]  8.22
